{"source": "patent US11717598B2", "about": "“Operating room coating applicator and method” (Ethicon, Inc., priority 2018, dated 2023)", "key": {"[1]": {"system": "Staphylococcus aureus", "test": "zone of inhibition test of triclosan-coated stainless steel coupon on agar plate", "assay_type": "cell-based", "settings": "triclosan coating on 0.5\" polished 316 stainless steel coupon; incubated at 38° C. for 24 hours; inoculum of 10^5 bacteria per cubic centimeter; 80 mm diameter plate", "from_the_text": "A filter paper disk, or other object, impregnated with a particular antimicrobial agent is applied to an agar medium that is inoculated with the test organism. Where the anti-microbial agent diffuses through the medium, and as long as the concentration of the antimicrobial agent is above the MIC, none of the susceptible organism will grow on or around the disk for some distance. This distance is called a zone of inhibition. […] The diameter of the zone of inhibition is inversely proportional to the MIC.\nA triclosan coating was applied to a 0.5″ polished 316 stainless steel coupon using the device described in FIGS. 1 and 2 according to the cycle described in FIG. 10. The stainless steel coupon was then incubated at 38° C. for 24 hours on an agar plate containing an initial Staphylococcus aureus inoculum of 10^5 bacteria per cubic centimeter of solution."}, "[2]": {"system": "S. aureus", "settings": "measured in a suitable growth medium; Bhargava, H. et al, American Journal of Infection Control, June 1996; cited from earlier work"}}}
{"smiles": "Oc1cc(Cl)ccc1Oc1ccc(Cl)cc1Cl", "note": "[triclosan, 2,4,4′-trichloro-2′-hydroxydiphenyl ether]", "values": [{"measurement": "zone of inhibition", "setting": "[1]", "result": "approximately 40 mm"}, {"measurement": "minimum inhibitory concentration (MIC) against S. aureus", "setting": "[2]", "result": 0.01, "unit": "ppm"}]}
